Data on 15 compounds can be found in ChEMBL document CHEMBL3860099, “Original Vinca Derivatives: From P-Glycoprotein Substrates to P-Glycoprotein Inhibitors” (J Med Chem, 2016).

The nature of data set [1]: Cytotoxicity against human K562 cells incubated for 72 hrs by CellTiter 96 aqueous one solution reagent based assay. In kind it is functional, cell-based.
The nature of data set [2]: Cytotoxicity against doxorubicin-resistant human K562R cells incubated for 72 hrs by CellTiter 96 aqueous one solution reagent based assay. To be noted: k-562r. In kind it is functional, cell-based.
Data set [3] can be described thus: Resistance index, ratio of IC50 for cytotoxicity against doxorubicin-resistant human K562R cells to IC50 for cytotoxicity against human K562 cells. The data set is classed as functional.
Data set [4] concerns K562R. Briefly: Inhibition of P-gp in doxorubicin-resistant human K562R cells assessed as rhodamine influx by measuring mean fluorescence intensity at 10 uM incubated for 20 mins by flow cytometry. The data set is classed as cell-based. In general terms: In flow cytometry, cells or beads pass a laser one at a time.
Data set [5] relates to K562R. The experiment in a line: Inhibition of P-gp in doxorubicin-resistant human K562R cells assessed as rhodamine influx by measuring ratio of rhodamine mean fluorescence intensity in presence and absence of compound at 10 uM incubated for 20 mins by flow cytometry. The data set is classed as cell-based.
Data set [6] relates to K562R. To be noted: Homo sapiens.
Description: Inhibition of P-gp in doxorubicin-resistant human K562R cells assessed as rhodamine efflux by measuring mean fluorescence intensity at 10 uM incubated for 1 hr by flow cytometry (Rvb = 0.47 No_unit)
The nature of data set [7]: Cytotoxicity against human MRC5 cells incubated for 72 hrs by CellTiter 96 aqueous one solution reagent based assay. To be noted: mrc5, 72 h. The data set is classed as toxicity, cell-based.
The test system of data set [8] is K562R. The experiment in a line: Inhibition of P-gp in doxorubicin-resistant human K562R cells assessed as rhodamine influx by measuring ratio of rhodamine mean fluorescence intensity in presence and absence of compound at 5 uM incubated for 20 mins by flow cytometry. The data set is classed as cell-based.
A short description of data set [9]: Cytotoxicity against doxorubicin-resistant human K562R cells assessed as reduction in cell viability at 1 uM incubated for 72 hrs by CellTiter 96 aqueous one solution reagent based assay. In kind it is functional, K562.
Data set [10] can be described thus: Cytotoxicity against doxorubicin-resistant human K562R cells assessed as reduction in cell viability at 2 uM incubated for 72 hrs by CellTiter 96 aqueous one solution reagent based assay. In kind it is functional, K562.
Data set [11] concerns K562R. The experiment in a line: Inhibition of P-gp-mediated multidrug resistance in doxorubicin-resistant human K562R cells assessed as potentiation of 50 nM vinorelbine-induced cytotoxicity at 2 uM incubated for 72 hrs by CellTiter 96 aqueous one solution reagent based assay. In kind it is cell-based.
Data set [12] relates to K562R. The experiment in a line: Inhibition of P-gp-mediated multidrug resistance in doxorubicin-resistant human K562R cells assessed as potentiation of 5 nM vinorelbine-induced cytotoxicity by measuring cell viability at 1 uM incubated for 72 hrs by CellTiter 96 aqueous one solution reagent based assay.
Data set [13] has as its system K562R. Briefly: Inhibition of P-gp-mediated multidrug resistance in doxorubicin-resistant human K562R cells assessed as potentiation of 1 uM doxorubicin-induced cytotoxicity by measuring cell death level at 2 uM incubated for 72 hrs by CellTiter 96 aqueous one solution reagent based assay. Further details: scale not given: the % may be the effect or the level left.

Another data set deals with K562. The experiment in a line: Potentiation of 0.1 to 1 nM vinorelbine-induced cytotoxicity by measuring reduction in cell viability against human K562 cells at 2 uM incubated for 72 hrs by CellTiter 96 aqueous one solution reagent based assay. The data set is classed as functional.
The species named for data set [14] is Homo sapiens. The experiment in a line: Stimulation of recombinant human P-gp ATPase activity at 10 uM by Pgp-Glo assay.
For data set [15], the species on record is Homo sapiens. The experiment in a line: Inhibition of recombinant human P-gp ATPase activity at 40 uM by Pgp-Glo assay.

Active and inactive are the calls of the source. The rule behind the calls is not given here.

With `CCOC(=O)[C@@H]1Cc2c([nH]c3ccccc23)[C@@](C(=O)OC)(c2cc3c(cc2OC)N(C)[C@H]2[C@@](O)(C(=O)OC)[C@H](OC(C)=O)[C@]4(CC)C=CCN5CC[C@]32[C@@H]54)C[C@H]2C=C(CC)CN(C2)C1`, the IC50 in data set [1] was 0.08 µmol; in data set [2], 3 µmol. Also, the “Ratio IC50” value in data set [3] was 37. Besides, the Flu intensity with K562R [4] was determined as 5.3; in the data set on K562R [6], 0.77. Moreover, in the data set on K562R [5], the Ratio worked out at 2.9.
On to `CCC1=C[C@H]2CN(C1)C[C@H](C(=O)OCc1ccccc1)Cc1c([nH]c3ccccc13)[C@@](C(=O)OC)(c1cc3c(cc1OC)N(C)[C@H]1[C@@](O)(C(=O)OC)[C@H](OC(C)=O)[C@]4(CC)C=CCN5CC[C@]31[C@@H]54)C2`, for which the IC50 in data set [1] is 0.4 µmol; in data set [2], greater than 10 µmol. Also, in data set [3], the “Ratio IC50” value was greater than 25. Moreover, the figures for the Flu intensity in the data set on K562R [4] and in the data set on K562R [6] were 2.2 and 0.48, respectively. Moreover, the Ratio with K562R [5] was 1.2.
Turning to `CCOC(=O)/C1=C/N2CC(CC)=C[C@@H](C2)C[C@](C(=O)OC)(c2cc3c(cc2OC)N(C)[C@H]2[C@@](O)(C(=O)OC)[C@H](OC(C)=O)[C@]4(CC)C=CCN5CC[C@]32[C@@H]54)c2[nH]c3ccccc3c2C1`, the IC50 in data set [1] is 0.1 µmol; in data set [2], greater than 10 µmol. Besides, the “Ratio IC50” value in data set [3] is listed as greater than 100. Besides, the Flu intensity in the data set with K562R [4] amounted to 7.2; with K562R [6], 0.64. For the same compound, the Ratio with K562R [5] stood at 4.
Regarding `CCC1=C[C@@H]2CN(C1)Cc1c([nH]c3ccccc13)[C@@](C(=O)OC)(c1cc3c(cc1OC)N(C)[C@H]1[C@@](O)(C(=O)OC)[C@H](OC(C)=O)[C@]4(CC)C=CCN5CC[C@]31[C@@H]54)C2` [VINORELBINE], the IC50 in data set [1] amounted to 0.003 µmol; in [2], 0.41 µmol. Further, the “Ratio IC50” value in data set [3] came to 137. The Flu intensity turned out to be 1.6 in the data set on K562R [4] and 0.42 with K562R [6]. Moreover, the Ratio in the data set on K562R [5] was 0.9. In data set [7], the Activity result is listed as “Toxic”.
For the compound `CCC1=C[C@H]2CN(C1)/C(C(=O)NCc1ccccc1)=C(/C(=O)OC)Cc1c([nH]c3ccccc13)[C@@](C(=O)OC)(c1cc3c(cc1OC)N(C)[C@H]1[C@@](O)(C(=O)OC)[C@H](OC(C)=O)[C@]4(CC)C=CCN5CC[C@]31[C@@H]54)C2`, the IC50 in data set [1] came out at 0.04 µmol; in [2], 6 µmol. Moreover, in [3], the “Ratio IC50” value was determined as 150. Moreover, the Flu intensity in the data set on K562R [4] was 2.2; in the data set with K562R [6], 0.55. Also, the Ratio in the data set on K562R [5] was determined as 1.2.
Turning to `CCC1=C[C@H]2CN(C1)C1=C(Cc3c([nH]c4ccccc34)[C@@](C(=O)OC)(c3cc4c(cc3OC)N(C)[C@H]3[C@@](O)(C(=O)OC)[C@H](OC(C)=O)[C@]5(CC)C=CCN6CC[C@]43[C@@H]65)C2)C(=O)N(CC(C)C)C1=O`, the IC50 in [1] was determined as 0.45 µmol; in data set [2] it was 2.5 µmol. Also, in [3], the “Ratio IC50” value was found to be 5.5. In addition, the Flu intensity was determined as 36 with K562R [4] and 7.72 with K562R [6]. Further, the Ratio with K562R [5] worked out at 20. The inhibition entry in the data set with K562R [8] was “Active”. Moreover, in [7], the Activity entry was “Toxic”.
On to `CCC1=C[C@H]2CN(C1)C1=C(Cc3c([nH]c4ccccc34)[C@@](C(=O)OC)(c3cc4c(cc3OC)N(C)[C@H]3[C@@](O)(C(=O)OC)[C@H](OC(C)=O)[C@]5(CC)C=CCN6CC[C@]43[C@@H]65)C2)C(=O)N(Cc2ccccc2)C1=O`, for which the IC50 in data set [1] stood at 0.9 µmol; in data set [2], 5 µmol. Further, the “Ratio IC50” value in data set [3] was determined as 5.5. The Flu intensity in the data set with K562R [4] is 11.3; in the data set on K562R [6], 1.89. Moreover, in the data set on K562R [5], the Ratio was determined as 6.3. Further, the inhibition entry with K562R [8], with K562R [11] and in the data set listed under Homo sapiens [15] was “Active” in each case. The Activity in data set [9] was 20%; in data set [10], 20%; with K562R [12], 40%; in the data set with K562R [13] it was 90%; in the data set with K562, 20%; in [7] it was “Toxic”. For the same compound, the outcome in the data set filed under Homo sapiens [14] was Active.
Turning to `CCC1=C[C@H]2CN(/C=C(/C(=O)OCc3ccccc3)Cc3c([nH]c4ccccc34)[C@@](C(=O)OC)(c3cc4c(cc3OC)N(C)[C@H]3[C@@](O)(C(=O)OC)[C@H](OC(C)=O)[C@]5(CC)C=CCN6CC[C@]43[C@@H]65)C2)C1`, the IC50 in data set [1] was 0.1 µmol; in data set [2], greater than 10 µmol. In addition, the “Ratio IC50” value in data set [3] is reported as greater than 100. Moreover, the Flu intensity in the data set on K562R [4] was 2.3; with K562R [6], 0.48. The Ratio in the data set with K562R [5] came out at 1.3.
In the case of `CC[C@]1(O)C[C@@H]2CN(CCc3c([nH]c4ccccc34)[C@@](C(=O)OC)(c3cc4c(cc3OC)N(C)[C@H]3[C@@](O)(C(=O)OC)[C@H](OC(C)=O)[C@]5(CC)C=CCN6CC[C@]43[C@@H]65)C2)C1` [VINBLASTINE], the IC50 came out at 0.004 µmol in [1] and 0.48 µmol in [2]. Besides, the “Ratio IC50” value in data set [3] was determined as 120. Also, the Flu intensity with K562R [4] was 1.2; in the data set with K562R [6], 0.42. Further, in the data set on K562R [5], the Ratio came to 0.7. For the same compound, the Activity result in data set [7] was “Toxic”.
On to `CCC1=C[C@H]2CN(/C=C(/C(=O)OC)Cc3c([nH]c4ccc(Br)cc34)[C@@](C(=O)OC)(c3cc4c(cc3OC)N(C)[C@H]3[C@@](O)(C(=O)OC)[C@H](OC(C)=O)[C@]5(CC)C=CCN6CC[C@]43[C@@H]65)C2)C1`, for which the IC50 in data set [1] stood at 0.5 µmol; in [2], 3 µmol. Moreover, the “Ratio IC50” value in data set [3] amounted to 6. Further, the Flu intensity was determined as 2.1 in the data set with K562R [4] and 0.47 in the data set on K562R [6]. The Ratio in the data set on K562R [5] was 1.2.
As for `C#Cc1ccc2[nH]c3c(c2c1)C/C(C(=O)OC)=C(/C(=O)NC(C)C)N1CC(CC)=C[C@@H](C1)C[C@]3(C(=O)OC)c1cc2c(cc1OC)N(C)[C@H]1[C@@](O)(C(=O)OC)[C@H](OC(C)=O)[C@]3(CC)C=CCN4CC[C@]21[C@@H]43`, the IC50 in data set [1] was 0.6 µmol; in data set [2], 2.5 µmol. Besides, in data set [3], the “Ratio IC50” value was 4. Also, the Flu intensity in the data set with K562R [4] is 1.8; with K562R [6], 0.51. Also, the Ratio in the data set with K562R [5] came to 1.
Consider `CCC1=C[C@H]2CN(C1)/C(C(=O)NC(C)C)=C(/C(=O)OC)Cc1c([nH]c3ccccc13)[C@@](C(=O)OC)(c1cc3c(cc1OC)N(C)[C@H]1[C@@](O)(C(=O)OC)[C@H](OC(C)=O)[C@]4(CC)C=CCN5CC[C@]31[C@@H]54)C2`, for which the IC50 in data set [1] worked out at 0.04 µmol; in data set [2], 2 µmol. Also, in data set [3], the “Ratio IC50” value amounted to 50. The Flu intensity in the data set on K562R [4] came to 2.9; in the data set on K562R [6] it was 1.39. Besides, the Ratio in the data set on K562R [5] came to 1.6.
For the compound `COc1cccc2c1C(=O)c1c(O)c3c(c(O)c1C2=O)C[C@@](O)(C(=O)CO)C[C@@H]3O[C@H]1C[C@H](N)[C@H](O)[C@H](C)O1` [DOXORUBICIN], the figures for the IC50 in data set [1] and in [2] were 0.047 µmol and 35 µmol, respectively. In addition, the “Ratio IC50” value in data set [3] was 745.
Take `C#Cc1ccc2[nH]c3c(c2c1)C/C(C(=O)OC)=C\N1CC(CC)=C[C@@H](C1)C[C@]3(C(=O)OC)c1cc2c(cc1OC)N(C)[C@H]1[C@@](O)(C(=O)OC)[C@H](OC(C)=O)[C@]3(CC)C=CCN4CC[C@]21[C@@H]43`: the values for the IC50 in data set [1] and in [2] were 0.6 µmol and 3 µmol, respectively. Also, in data set [3], the “Ratio IC50” value is on record as 5. In addition, the results for the Flu intensity with K562R [4] and in the data set on K562R [6] were 1.6 and 0.45, respectively. In addition, in the data set with K562R [5], the Ratio was 0.9.
Take `CCC1=C[C@H]2CN(C1)C1=C(Cc3c([nH]c4ccccc34)[C@@](C(=O)OC)(c3cc4c(cc3OC)N(C)[C@H]3[C@@](O)(C(=O)OC)[C@H](OC(C)=O)[C@]5(CC)C=CCN6CC[C@]43[C@@H]65)C2)C(=O)N(C(C)C)C1=O`: the IC50 is 2.6 µmol in data set [1] and 6 µmol in data set [2]. For the same compound, in data set [3], the “Ratio IC50” value is given as 2.3. Moreover, the Flu intensity worked out at 7.6 with K562R [4] and 2.9 with K562R [6]. Further, in the data set with K562R [5], the Ratio was found to be 4.2. The inhibition entry in the data set with K562R [8] is “Active”. Moreover, in data set [7], the Activity entry is listed as “Toxic”.
